From patent US12173007B2, “Imidazopyridazine IL-17 inhibitor compounds” (Janssen Pharmaceutica NV, priority 2021, dated 2024)

Legend:
[1] = system: IL-17A-induced G-CSF production in human normal keratinocyte (NHK); experiment: NHK assay: IL-17A-induced G-CSF production in normal human keratinocytes; type: cell-based; conditions: Homo sapiens, Keratinocyte, 24 h, IL-17A 5 ng/mL, G-CSF by HTRF, average if tested more than once
Protocol: IL-17A acts directly on keratinocytes through binding to dimeric receptor IL-17RA/RC and drives the production of a number of inflammatory mediators known to be elevated in psoriasis lesional tissue. IL-17A small molecule inhibitors that block the IL-17A to interact with IL-17R would inhibit the IL-17A signaling in its targeted cells such as keratinocytes. The compound functional activity is evaluated for its impact on IL-17A-induced G-CSF production in human normal keratinocyte (NHK).
Adult normal human keratinocytes are cultured in keratinocyte growth medium (Lonza) in a flask till reaching ˜90% confluence, then cells are transferred to a 384-well plate at density of 3000-4000 cell/well. Recombinant human IL-17A (Gibco PHC9174) is pre-incubated with titrated compound or DMSO for 1 h at rt then added to the cell culture plate. The final concentration of IL-17A is 5 ng/mL and DMSO is 0.2%, in the culture containing 5% FBS. Cells are cultured/treated for 24 h at 37° C. Supernatants are collected and G-CSF production is measured through HTRF technology using Human G-CSF Kit (CisBio). G-CSF concentration was extrapolated from the standard curve and IC50 is determined using GraphPad Prism. Cell viability is also evaluated using CellTiter-Glo kit (Promega) and effect of compound on cell viability is compared to DMSO control.

[2] = target: IL-17A(FLAG-Tagged): IL-17RA(His-Tagged) binding (Homo sapiens, UniProt Q16552, K93Q); experiment: IL-17A(FLAG-tagged):IL-17RA(His-tagged) binding disruption Eu-HTRF assay, Protocol 2; conditions: FLAG-IL-17A 1 nM; average if tested more than once
Sequence of UniProt Q16552 (Q16552 with tags, fused parts or gaps K93Q): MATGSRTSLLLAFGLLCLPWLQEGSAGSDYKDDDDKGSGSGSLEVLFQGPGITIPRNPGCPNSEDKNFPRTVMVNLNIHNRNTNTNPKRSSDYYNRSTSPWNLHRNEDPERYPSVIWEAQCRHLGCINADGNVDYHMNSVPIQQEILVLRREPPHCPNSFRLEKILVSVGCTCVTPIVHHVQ
Source text: IL-17A(FLAG-Tagged): IL-17RA(His-Tagged) Binding Disruption Eu-HTRF Assay
An antibody directed against the FLAG tag of IL-17A (SEQ ID NO: 1) is labeled with the HTRF donor chromophore (Europium-cryptate). IL-17A is present as a dimer that is “locked into” this quaternary structure due to the formation of loop-spanning […] disulfide bridges. The construct of IL-17RA used in the assay excludes the […] portion of the receptor and is fused to a C-terminal 10×His tag (SEQ ID NO:2). An antibody directed against the His tag of the IL-17RA chimera is labeled with the HTRF acceptor chromophore (“D2”). The fluorescence-resonance energy transfer (FRET) depends on the vicinity of the donor chromophore to the acceptor, and interruption of the binding between the IL-17A and IL-17RA causes the reduction/loss of FRET. Therefore, this assay allows to evaluate the compound effect on the binding IL-17A and IL-17RA by monitoring the fluorescence intensity of donor vs acceptor. The assay was run using either Protocol 1 or Protocol 2 as described below.
Protocol 2. 40 nl of 2-fold serial diluted compound solution for total 22 dilution points is added into each well of a 1536-well, white, low-volume, non-binding plate (Greiner #782904), then 2 μl of FLAG tagged IL-17A at 2×final concentration (1 nM) in solution of PBS+0.01% Triton-X100 is added to each well. The assay plate is briefly centrifuged then incubated for 1 h at rt. A mixed solution is prepared containing 2×5 nM 10HIS×IL-17RA, 2×2.5 nM Eu-anti-FLAG (CISBIO), 2×5 nM D2-anti-HIS (CISBIO) in PBS+0.01% Triton-X100+200 mM Potassium Fluoride (Sigma 60238) and 2 μl of mix is added to each well of the assay plate. The plate is briefly centrifuged then incubated for 2 h at rt. The HTRF intensities at the wavelength of donor (615 nm) and acceptor (665 nm) are measured using BMG Pherastar. The ratio between intensities at two wavelengths is calculated and plotted against the compound concentration and the data is fitted to a one-site competition model to yield IC50 of the compound.

Row | SMILES | IC50 [2] | IC50 [1]
1 | [2H]C1([2H])NC(=O)N([C@H](COC)c2cnn3cc([C@H](CCC(C)(C)C(F)(F)F)NC(=O)c4nonc4C(F)F)nc3c2)C([2H])([2H])C1(F)F [Example 81, N—((S)-1-(7-((S)-1-(5,5-Difluoro-2-oxotetrahydropyrimidin-1(2H)-yl-4,4,6,6-d4)-2-methoxyethyl)imidazo[1,2-b]pyridazin-2-yl)-5,5,5-trifluoro-4,4-dimethylpentyl)-4-(difluoromethyl)-1,2,5-oxadiazole-3-carboxamide] | < 50 nM | < 50 nM
2 | [2H]C1([2H])NC(=O)N([C@H](COC)c2cnn3cc([C@H](CCC(C)(C)C(F)(F)F)NC(=O)c4nonc4C)nc3c2)C([2H])([2H])C1(F)F [Example 74, N—((S)-1-(7-((S)-1-(5,5-Difluoro-2-oxotetrahydropyrimidin-1(2H)-yl-4,4,6,6-d4)-2-methoxyethyl)imidazo[1,2-b]pyridazin-2-yl)-5,5,5-trifluoro-4,4-dimethylpentyl)-4-methyl-1,2,5-oxadiazole-3-carboxamide] | < 50 nM | < 50 nM
3 | [2H]C1([2H])NC(=O)N([C@H](COC2CC2)c2cnn3cc([C@@H](NC(=O)c4nonc4C)C4CCC(F)(F)CC4)nc3c2)C([2H])([2H])C1(F)F (single isomer, unassigned) [Example 40] | < 50 nM | < 50 nM
4 | Cc1nonc1C(=O)N[C@H](c1cn2ncc(C(C3CCOCC3)N3CC(F)(F)CNC3=O)cc2n1)C1CCC(F)(F)CC1 (single isomer, unassigned) [Example 59, N—((S)-(7-((R*)-(5,5-Difluoro-2-oxotetrahydropyrimidin-1(2H)-yl)(tetrahydro-2H-pyran-4-yl)methyl)imidazo[1,2-b]pyridazin-2-yl)(4,4-difluorocyclohexyl)methyl)-4-methyl-1,2,5-oxadiazole-3-carboxamide] | < 50 nM | < 50 nM
5 | [2H]C1([2H])NC(=O)N([C@H](COC2CC2)c2cnn3cc([C@@H](NC(=O)c4nonc4OC)C4CCC(F)(F)CC4)nc3c2)C([2H])([2H])C1(F)F [Example 69, N—((S)-(7-((S)-2-Cyclopropoxy-1-(5,5-difluoro-2-oxotetrahydropyrimidin-1(2H)-yl-4,4,6,6-d4)ethyl)imidazo[1,2-b]pyridazin-2-yl)(4,4-difluorocyclohexyl)methyl)-4-methoxy-1,2,5-oxadiazole-3-carboxamide] | < 50 nM | < 50 nM
6 | COC[C@H](c1cnn2cc([C@H](CCC(C)(C)C(F)(F)F)NC(=O)c3nonc3OC)nc2c1)N1CC(F)(F)CNC1=O [Example 109, N—((S)-1-(7-((S)-1-(5,5-Difluoro-2-oxotetrahydropyrimidin-1(2H)-yl)-2-methoxyethyl)imidazo[1,2-b]pyridazin-2-yl)-5,5,5-trifluoro-4,4-dimethylpentyl)-4-methoxy-1,2,5-oxadiazole-3-carboxamide] | < 50 nM | < 50 nM
7 | [2H]C1([2H])NC(=O)N([C@H](COC2CC2)c2cnn3cc([C@@H](NC(=O)c4ccnn4C(C)C)C4CCC(F)(F)CC4)nc3c2)C([2H])([2H])C1(F)F [Example 71, N—((S)-(7-((S)-2-Cyclopropoxy-1-(5,5-difluoro-2-oxotetrahydropyrimidin-1(2H)-yl-4,4,6,6-d4)ethyl)imidazo[1,2-b]pyridazin-2-yl)(4,4-difluorocyclohexyl)methyl)-1-isopropyl-1H-pyrazole-5-carboxamide] | < 50 nM | < 50 nM
8 | COC[C@H](c1cnn2cc([C@@H](NC(=O)c3nonc3C3CC3)[C@@H](C)OC3CC3)nc2c1)N1CC(F)(F)CNC1=O (relative stereo) [Example 54, N-((1R*,2R*)-2-Cyclopropoxy-1-(7-((S)-1-(5,5-difluoro-2-oxotetrahydropyrimidin-1(2H)-yl)-2-methoxyethyl)imidazo[1,2-b]pyridazin-2-yl)propyl)-4-cyclopropyl-1,2,5-oxadiazole-3-carboxamide] | < 50 nM | 50 to 100 nM
9 | [2H]C1([2H])NC(=O)N([C@H](COC2CC2)c2cnn3cc([C@H](CCC(C)(C)C(F)(F)F)NC(=O)c4nonc4C)nc3c2)C([2H])([2H])C1(F)F [Example 76, N—((S)-1-(7-((S)-2-Cyclopropoxy-1-(5,5-difluoro-2-oxotetrahydropyrimidin-1(2H)-yl-4,4,6,6-d4)ethyl)imidazo[1,2-b]pyridazin-2-yl)-5,5,5-trifluoro-4,4-dimethylpentyl)-4-methyl-1,2,5-oxadiazole-3-carboxamide] | < 50 nM | < 50 nM

Now from value to compound, other results behind:

Row | IC50 [2] | SMILES | IC50 [1]
10 | < 50 nM | COC[C@H](c1cnn2cc([C@@H](NC(=O)c3nonc3C(C)(F)F)C3CCC(F)(F)CC3)nc2c1)N1CC(F)(F)CNC1=O [Example 127, N—((S)-(7-((S)-1-(5,5-Difluoro-2-oxotetrahydropyrimidin-1(2H)-yl)-2-methoxyethyl)imidazo[1,2-b]pyridazin-2-yl)(4,4-difluorocyclohexyl)methyl)-4-(1,1-difluoroethyl)-1,2,5-oxadiazole-3-carboxamide] | < 50 nM
11 | < 50 nM | CC(C)(CC[C@H](NC(=O)c1nonc1C1CC1)c1cn2ncc(CN3C[C@H]4[C@@H](CNC3=O)C4(F)F)cc2n1)C(F)(F)F (relative stereo) [Example 119, 4-Cyclopropyl-N—((S)-1-(7-(((1R*,7S*)-8,8-difluoro-4-oxo-3,5-diazabicyclo[5.1.0]octan-3-yl)methyl)imidazo[1,2-b]pyridazin-2-yl)-5,5,5-trifluoro-4,4-dimethylpentyl)-1,2,5-oxadiazole-3-carboxamide] | < 50 nM
12 | < 50 nM | COc1nonc1C(=O)N[C@@H](CCC(C)(C)C(F)(F)F)c1cn2ncc(CN3CC(F)(F)CNC3=O)cc2n1 [Example 113, (S)—N-(1-(7-((5,5-Difluoro-2-oxotetrahydropyrimidin-1(2H)-yl)methyl)imidazo[1,2-b]pyridazin-2-yl)-5,5,5-trifluoro-4,4-dimethylpentyl)-4-methoxy-1,2,5-oxadiazole-3-carboxamide] | < 50 nM
13 | < 50 nM | CC(C)(CC[C@H](NC(=O)c1nonc1C1CC1)c1cn2ncc(CN3CC(F)(F)CNC3=O)cc2n1)C(F)(F)F [Example 114, (S)-4-Cyclopropyl-N-(1-(7-((5,5-difluoro-2-oxotetrahydropyrimidin-1(2H)-yl)methyl)imidazo[1,2-b]pyridazin-2-yl)-5,5,5-trifluoro-4,4-dimethylpentyl)-1,2,5-oxadiazole-3-carboxamide] | < 50 nM
14 | < 50 nM | CC(C)(CC[C@H](NC(=O)c1nonc1C1CC1)c1cn2ncc(CN3C[C@@H]4[C@H](CNC3=O)C4(F)F)cc2n1)C(F)(F)F (relative stereo) [Example 118, 4-Cyclopropyl-N—((S)-1-(7-(((1S*,7R*)-8,8-difluoro-4-oxo-3,5-diazabicyclo[5.1.0]octan-3-yl)methyl)imidazo[1,2-b]pyridazin-2-yl)-5,5,5-trifluoro-4,4-dimethylpentyl)-1,2,5-oxadiazole-3-carboxamide] | > 100 nM
15 | < 50 nM | COC[C@H](c1cnn2cc(C(NC(=O)c3nonc3C)C3C[C@H]4CC[C@H]4C3)nc2c1)N1CC(F)(F)CNC1=O (single isomer, unassigned) [Example 132, N-((1S*)-((1R,5S)-Bicyclo[3.2.0]heptan-3-yl)(7-((S)-1-(5,5-difluoro-2-oxotetrahydropyrimidin-1(2H)-yl)-2-methoxyethyl)imidazo[1,2-b]pyridazin-2-yl)methyl)-4-methyl-1,2,5-oxadiazole-3-carboxamide] | < 50 nM
